Source: ChEMBL document CHEMBL4699572, “Identification of Antifungal Bisphosphocholines from Medicinal Gentiana Species” (2020)
Calls of active or inactive are those of the source. No cut-off for these calls is given here.

Assays:
Assay type in all cases: functional
Aspergillus fumigatus = assay: Antifungal activity against Aspergillus fumigatus ATCC 204305 assessed as reduction in microbial growth after 72 hrs by CLSI based method
Cryptococcus neoformans = assay: Antifungal activity against Cryptococcus neoformans ATCC 90113 assessed as reduction in microbial growth after 72 hrs by CLSI based method
Nakaseomyces glabratus = assay: Antifungal activity against Candida glabrata ATCC 90030 assessed as reduction in microbial growth after 18 to 24 hrs by CLSI based method; details: time hrs 18-24
Candida albicans = assay: Antifungal activity against Candida albicans ATCC 90028 assessed as reduction in microbial growth after 18 to 24 hrs by CLSI based method; details: time hrs 18-24

SMILES | MIC (Aspergillus fumigatus) [µg/mL] | MIC (Cryptococcus neoformans) [µg/mL] | Activity (Nakaseomyces glabratus) | Activity (Aspergillus fumigatus) | Activity (Cryptococcus neoformans) | Activity (Candida albicans) | MIC (Nakaseomyces glabratus) [µg/mL] | MIC (Candida albicans) [µg/mL]
C[C@@H]1[C@H](O)[C@@H](C)/C=C/C=C/C=C/C=C/C=C/C=C/C=C/[C@H](O[C@@H]2O[C@H](C)[C@@H](O)[C@H](N)[C@@H]2O)C[C@@H]2O[C@](O)(C[C@@H](O)C[C@@H](O)[C@H](O)CC[C@@H](O)C[C@@H](O)CC(=O)O[C@H]1C)C[C@H](O)[C@H]2C(=O)O [AMPHOTERICIN B] | 2.5 | 0.63 |  |  |  |  |  | 
C[N+](C)(C)CCOP(=O)([O-])OCCCCCCCCCCCCCCCCCCCCCCCOP(=O)([O-])OCC[N+](C)(C)C |  |  | inactive | inactive | inactive | inactive |  | 
C[N+](C)(C)CCOP(=O)([O-])OCCCCCCCCCCCCCCCCCCCCCOP(=O)([O-])OCC[N+](C)(C)C |  |  | inactive | inactive | inactive | inactive |  | 
C[N+](C)(C)CCOP(=O)([O-])OCCCCCCCCCCCCCCCCCCCCCCOP(=O)([O-])OCC[N+](C)(C)C | 1.25 | 0.63 |  |  |  |  | 5 | 10
C[N+](C)(C)CCOP(=O)([O-])OCCCCCCCCCCCCCCCCCCCCCCCCOP(=O)([O-])OCC[N+](C)(C)C |  |  | inactive | inactive | inactive | inactive |  | 
